According to PubChem BioAssay (NCI):
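GI50 is the concentration that inhibits growth by half. TGI marks complete inhibition of growth.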

Key:
Test in all cases: inhibition of tumour cell growth, NCI panel, 384-well format
HT29 colon = tested on: HT29 colon
DU-145 prostate = tested on: DU-145 prostate
UACC-62 melanoma = tested on: UACC-62 melanoma
OVCAR-3 ovarian = tested on: OVCAR-3 ovarian
786-0 renal = tested on: 786-0 renal
HCC-2998 colon = tested on: HCC-2998 colon
COLO 205 colon = tested on: COLO 205 colon
EKVX NSCLC = tested on: EKVX NSCLC
OVCAR-8 ovarian = tested on: OVCAR-8 ovarian
BT-549 breast = tested on: BT-549 breast
HS 578T breast = tested on: HS 578T breast
SW-620 colon = tested on: SW-620 colon
SK-MEL-28 melanoma = tested on: SK-MEL-28 melanoma
ACHN renal = tested on: ACHN renal
HOP-92 NSCLC = tested on: HOP-92 NSCLC
CAKI-1 renal = tested on: CAKI-1 renal
SNB-75 CNS = tested on: SNB-75 CNS
IGROV1 ovarian = tested on: IGROV1 ovarian
HCT-15 colon = tested on: HCT-15 colon
K-562 leukemia = tested on: K-562 leukemia
NCI-H522 lung = tested on: NCI-H522 lung
UACC-257 melanoma = tested on: UACC-257 melanoma
SK-MEL-5 melanoma = tested on: SK-MEL-5 melanoma
TK-10 renal = tested on: TK-10 renal
MDA-MB-468 breast = tested on: MDA-MB-468 breast
PC-3 prostate = tested on: PC-3 prostate
HL-60(TB) leukemia = tested on: HL-60(TB) leukemia
KM12 colon = tested on: KM12 colon
HCT-116 colon = tested on: HCT-116 colon
A498 renal = tested on: A498 renal
MOLT-4 leukemia = tested on: MOLT-4 leukemia
NCI-H460 NSCLC = tested on: NCI-H460 NSCLC
SF-295 CNS = tested on: SF-295 CNS
SF-539 CNS = tested on: SF-539 CNS
CCRF-CEM leukemia = tested on: CCRF-CEM leukemia
SK-MEL-2 melanoma = tested on: SK-MEL-2 melanoma
RXF 393 renal = tested on: RXF 393 renal
SF-268 CNS = tested on: SF-268 CNS
OVCAR-5 ovarian = tested on: OVCAR-5 ovarian
HOP-62 NSCLC = tested on: HOP-62 NSCLC
NCI-H226 lung = tested on: NCI-H226 lung
SNB-19 CNS = tested on: SNB-19 CNS
MDA-MB-231 breast = tested on: MDA-MB-231 breast
A549 NSCLC = tested on: A549 NSCLC
SK-OV-3 ovarian = tested on: SK-OV-3 ovarian
UO-31 renal = tested on: UO-31 renal
LOX IMVI melanoma = tested on: LOX IMVI melanoma
RPMI-8226 leukemia = tested on: RPMI-8226 leukemia
M14 melanoma = tested on: M14 melanoma
MCF7 breast = tested on: MCF7 breast
T-47D breast = tested on: T-47D breast
NCI-H23 lung = tested on: NCI-H23 lung
MALME-3M melanoma = tested on: MALME-3M melanoma
U251 glioblastoma = tested on: U251 glioblastoma
NCI-H322M lung = tested on: NCI-H322M lung
MDA-MB-435 melanoma = tested on: MDA-MB-435 melanoma
NCI/ADR-RES ovarian = tested on: NCI/ADR-RES ovarian
SN12C renal = tested on: SN12C renal
OVCAR-4 ovarian = tested on: OVCAR-4 ovarian

C[C@@H]1Cc2c([nH]c3ccccc23)[C@@H](c2c(F)cc(/C=C/C(=O)O)cc2F)N1CC(C)(C)F
GI50 (HT29 colon): 15.2 µM
TGI (HT29 colon): 28.8 µM
GI50 (DU-145 prostate): 15.9 µM
TGI (DU-145 prostate): 35.5 µM
GI50 (UACC-62 melanoma): 15.7 µM
TGI (UACC-62 melanoma): 29.4 µM
GI50 (OVCAR-3 ovarian): 13.3 µM
TGI (OVCAR-3 ovarian): 26.2 µM
GI50 ([…]-0 renal): 14.1 µM
TGI (786-0 renal): 27.7 µM
GI50 (HCC-2998 colon): 15.3 µM
TGI (HCC-2998 colon): 28.7 µM
GI50 (COLO 205 colon): 17.7 µM
TGI (COLO 205 colon): 39.3 µM
GI50 (EKVX NSCLC): 15.6 µM
TGI (EKVX NSCLC): 31.4 µM
GI50 (OVCAR-8 ovarian): 14.9 µM
TGI (OVCAR-8 ovarian): 28.6 µM
GI50 (BT-549 breast): 15.6 µM
TGI (BT-549 breast): 29.2 µM
GI50 (HS 578T breast): 14 µM
TGI (HS 578T breast): 27 µM
GI50 (SW-620 colon): 16 µM
TGI (SW-620 colon): 29.7 µM
GI50 (SK-MEL-28 melanoma): 17.4 µM
TGI (SK-MEL-28 melanoma): 31.4 µM
GI50 (ACHN renal): 17.7 µM
TGI (ACHN renal): 35.2 µM
GI50 (HOP-92 NSCLC): 14.5 µM
TGI (HOP-92 NSCLC): 28 µM
GI50 (CAKI-1 renal): 17.1 µM
TGI (CAKI-1 renal): 32.7 µM
GI50 (SNB-75 CNS): 17.5 µM
TGI (SNB-75 CNS): 33.1 µM
GI50 (IGROV1 ovarian): 16.4 µM
TGI (IGROV1 ovarian): 31.4 µM
GI50 (HCT-15 colon): 14.3 µM
TGI (HCT-15 colon): 27.8 µM
GI50 (K-562 leukemia): 15.4 µM
TGI (K-562 leukemia): 29.3 µM
GI50 (NCI-H522 lung): 16.8 µM
TGI (NCI-H522 lung): 30.8 µM
GI50 (UACC-257 melanoma): 17.9 µM
TGI (UACC-257 melanoma): 33.4 µM
GI50 (SK-MEL-5 melanoma): 13.9 µM
TGI (SK-MEL-5 melanoma): 27.2 µM
GI50 (TK-10 renal): 17.7 µM
TGI (TK-10 renal): 35.2 µM
GI50 (MDA-MB-468 breast): 20.4 µM
TGI (MDA-MB-468 breast): 40.2 µM
GI50 (PC-3 prostate): 13.4 µM
TGI (PC-3 prostate): 26.6 µM
GI50 (HL-60(TB) leukemia): 17 µM
TGI (HL-60(TB) leukemia): 30.8 µM
GI50 (KM12 colon): 16.5 µM
TGI (KM12 colon): 30.5 µM
GI50 (HCT-116 colon): 14.7 µM
TGI (HCT-116 colon): 28.3 µM
GI50 (A498 renal): 13.7 µM
TGI (A498 renal): 32.4 µM
GI50 (MOLT-4 leukemia): 11.8 µM
TGI (MOLT-4 leukemia): 24.1 µM
GI50 (NCI-H460 NSCLC): 15.3 µM
TGI (NCI-H460 NSCLC): 29 µM
GI50 (SF-295 CNS): 16.4 µM
TGI (SF-295 CNS): 30.5 µM
GI50 (SF-539 CNS): 15 µM
TGI (SF-539 CNS): 28.4 µM
GI50 (CCRF-CEM leukemia): 13 µM
TGI (CCRF-CEM leukemia): 25.8 µM
GI50 (SK-MEL-2 melanoma): 19.7 µM
TGI (SK-MEL-2 melanoma): 34.2 µM
GI50 (RXF 393 renal): 18.5 µM
TGI (RXF 393 renal): 32.6 µM
GI50 (SF-268 CNS): 16.3 µM
TGI (SF-268 CNS): 30.9 µM
GI50 (OVCAR-5 ovarian): 19.2 µM
TGI (OVCAR-5 ovarian): 34.3 µM
GI50 (HOP-62 NSCLC): 10.2 µM
TGI (HOP-62 NSCLC): 22.1 µM
GI50 (NCI-H226 lung): 17.4 µM
TGI (NCI-H226 lung): 32.6 µM
GI50 (SNB-19 CNS): 15.5 µM
TGI (SNB-19 CNS): 32.2 µM
GI50 (MDA-MB-231 breast): 17.5 µM
TGI (MDA-MB-231 breast): 31.6 µM
GI50 (A549 NSCLC): 11.6 µM
TGI (A549 NSCLC): 24.5 µM
GI50 (SK-OV-3 ovarian): 19.4 µM
TGI (SK-OV-3 ovarian): 39.2 µM
GI50 (UO-31 renal): 13.9 µM
TGI (UO-31 renal): 27.1 µM
GI50 (LOX IMVI melanoma): 17.2 µM
TGI (LOX IMVI melanoma): 31.2 µM
GI50 (RPMI-8226 leukemia): 11.4 µM
TGI (RPMI-8226 leukemia): 23.6 µM
GI50 (M14 melanoma): 15.7 µM
TGI (M14 melanoma): 29.3 µM
TGI (MCF7 breast): 18.9 µM
GI50 (T-47D breast): 10.7 µM
TGI (T-47D breast): 32.5 µM
GI50 (NCI-H23 lung): 15.4 µM
TGI (NCI-H23 lung): 29 µM
GI50 (MALME-3M melanoma): 14.5 µM
TGI (MALME-3M melanoma): 27.9 µM
GI50 (U251 glioblastoma): 11.9 µM
TGI (U251 glioblastoma): 24.4 µM
GI50 (NCI-H322M lung): 17.9 µM
TGI (NCI-H322M lung): 38.1 µM
GI50 (MDA-MB-435 melanoma): 18.4 µM
TGI (MDA-MB-435 melanoma): 32.9 µM
GI50 (NCI/ADR-RES ovarian): 16.8 µM
TGI (NCI/ADR-RES ovarian): 32 µM
GI50 (SN12C renal): 17.3 µM
TGI (SN12C renal): 32.3 µM
GI50 (OVCAR-4 ovarian): 12.8 µM
TGI (OVCAR-4 ovarian): 33.5 µM

O=C(O)CCCc1ccc(N(CCCl)CCCl)cc1
GI50 (HT29 colon): 51.9 µM
GI50 (DU-145 prostate): 27.3 µM
TGI (DU-145 prostate): 99.4 µM
GI50 (UACC-62 melanoma): 12 µM
GI50 (OVCAR-3 ovarian): 28.4 µM
GI50 ([…]-0 renal): 24.3 µM
GI50 (OVCAR-8 ovarian): 14.2 µM
GI50 (BT-549 breast): 14.1 µM
GI50 (SW-620 colon): 16.9 µM
GI50 (SK-MEL-28 melanoma): 57 µM
GI50 (ACHN renal): 8.31 µM
TGI (ACHN renal): 35 µM
GI50 (HOP-92 NSCLC): 25.3 µM
GI50 (CAKI-1 renal): 8.78 µM
GI50 (SNB-75 CNS): 19.8 µM
GI50 (HCT-15 colon): 23.7 µM
GI50 (K-562 leukemia): 41.6 µM
GI50 (NCI-H522 lung): 13.3 µM
TGI (NCI-H522 lung): 27.5 µM
GI50 (MDA-MB-468 breast): 4.37 µM
TGI (MDA-MB-468 breast): 21.4 µM
GI50 (HL-60(TB) leukemia): 1.64 µM
TGI (HL-60(TB) leukemia): 3.75 µM
GI50 (HCT-116 colon): 28.4 µM
GI50 (MOLT-4 leukemia): 1.26 µM
TGI (MOLT-4 leukemia): 2.52 µM
GI50 (SF-295 CNS): 18.3 µM
TGI (SF-295 CNS): 41.8 µM
GI50 (SF-539 CNS): 16.7 µM
TGI (SF-539 CNS): 60 µM
GI50 (CCRF-CEM leukemia): 3.29 µM
TGI (CCRF-CEM leukemia): 8.55 µM
GI50 (RXF 393 renal): 14.7 µM
TGI (RXF 393 renal): 29.8 µM
GI50 (SF-268 CNS): 9.3 µM
GI50 (OVCAR-5 ovarian): 45.7 µM
GI50 (HOP-62 NSCLC): 13.6 µM
TGI (HOP-62 NSCLC): 45.8 µM
GI50 (SNB-19 CNS): 35.3 µM
GI50 (MDA-MB-231 breast): 84.7 µM
GI50 (A549 NSCLC): 33.3 µM
GI50 (SK-OV-3 ovarian): 41.1 µM
GI50 (UO-31 renal): 39.8 µM
GI50 (LOX IMVI melanoma): 30.4 µM
GI50 (RPMI-8226 leukemia): 6.45 µM
TGI (RPMI-8226 leukemia): 23.6 µM
GI50 (M14 melanoma): 19.5 µM
GI50 (MCF7 breast): 41 µM
GI50 (T-47D breast): 36 µM
GI50 (NCI-H23 lung): 19.4 µM
TGI (NCI-H23 lung): 99.8 µM
GI50 (MALME-3M melanoma): 29.9 µM
GI50 (U251 glioblastoma): 11.6 µM
GI50 (NCI/ADR-RES ovarian): 19.9 µM
GI50 (SN12C renal): 10.4 µM
